Reference: patent publication US11168073B2, “3,3-difluoroallylamines or salts thereof and pharmaceutical compositions comprising the same” (YUHAN CORPORATION, priority 2018, dated 2021)
Counter-ions that a name gives are not always drawn.

Columns and labels:
Format in all cases: biochemical
[1] = target: T1, recombinant human MAO-A (monoamine oxidase-A) (Homo sapiens, UniProt P21397); experiment: Activity evaluation on recombinant human MAO-A (Amplex Red/HRP-coupled assay, 0.5 mM tyramine substrate); conditions: 0.5 mM tyramine, read-out: Inhibitory Activity (IC50, nM) MAO-A
T1 construct: purchased Sigma-Aldrich
T1 sequence (P21397 1-527): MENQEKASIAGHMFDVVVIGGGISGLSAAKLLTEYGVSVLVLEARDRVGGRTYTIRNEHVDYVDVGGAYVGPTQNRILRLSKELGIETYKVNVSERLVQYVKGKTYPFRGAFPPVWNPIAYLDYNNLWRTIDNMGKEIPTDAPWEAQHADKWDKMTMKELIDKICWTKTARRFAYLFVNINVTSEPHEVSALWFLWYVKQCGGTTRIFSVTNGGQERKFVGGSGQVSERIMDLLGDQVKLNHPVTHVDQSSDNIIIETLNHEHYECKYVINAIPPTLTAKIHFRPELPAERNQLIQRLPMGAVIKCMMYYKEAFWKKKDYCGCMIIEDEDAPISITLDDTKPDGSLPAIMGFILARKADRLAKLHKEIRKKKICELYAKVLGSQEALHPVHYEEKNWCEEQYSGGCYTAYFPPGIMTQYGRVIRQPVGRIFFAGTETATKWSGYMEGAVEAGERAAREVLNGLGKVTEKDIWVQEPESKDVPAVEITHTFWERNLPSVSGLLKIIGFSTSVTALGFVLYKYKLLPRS
Summary of the method: (§1)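 8-pt 1:3 dilution series, final DMSO <1%; 30 min 37 °C preincubation w/ enzyme, 50 mM Na phosphate pH 7.4; + 200 uM Amplex Red, 1 U/mL HRP, substrate (MAO-A tyramine 0.5 mM; MAO-B benzylamine 1 mM; DAO putrescine 1 mM); fluor. rate 544/590 nm, 1-2 h; 4-param IC50.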

[2] = target: T2, recombinant human DAO (diamine oxidase) (Homo sapiens, UniProt P19801); experiment: Activity evaluation on recombinant human DAO (Amplex Red/HRP-coupled assay, 1 mM putrescine substrate); conditions: 1 mM putrescine, read-out: Inhibitory Activity (IC50, nM) DAO
T2 construct: purchased R&D systems
T2 sequence (P19801 20-751): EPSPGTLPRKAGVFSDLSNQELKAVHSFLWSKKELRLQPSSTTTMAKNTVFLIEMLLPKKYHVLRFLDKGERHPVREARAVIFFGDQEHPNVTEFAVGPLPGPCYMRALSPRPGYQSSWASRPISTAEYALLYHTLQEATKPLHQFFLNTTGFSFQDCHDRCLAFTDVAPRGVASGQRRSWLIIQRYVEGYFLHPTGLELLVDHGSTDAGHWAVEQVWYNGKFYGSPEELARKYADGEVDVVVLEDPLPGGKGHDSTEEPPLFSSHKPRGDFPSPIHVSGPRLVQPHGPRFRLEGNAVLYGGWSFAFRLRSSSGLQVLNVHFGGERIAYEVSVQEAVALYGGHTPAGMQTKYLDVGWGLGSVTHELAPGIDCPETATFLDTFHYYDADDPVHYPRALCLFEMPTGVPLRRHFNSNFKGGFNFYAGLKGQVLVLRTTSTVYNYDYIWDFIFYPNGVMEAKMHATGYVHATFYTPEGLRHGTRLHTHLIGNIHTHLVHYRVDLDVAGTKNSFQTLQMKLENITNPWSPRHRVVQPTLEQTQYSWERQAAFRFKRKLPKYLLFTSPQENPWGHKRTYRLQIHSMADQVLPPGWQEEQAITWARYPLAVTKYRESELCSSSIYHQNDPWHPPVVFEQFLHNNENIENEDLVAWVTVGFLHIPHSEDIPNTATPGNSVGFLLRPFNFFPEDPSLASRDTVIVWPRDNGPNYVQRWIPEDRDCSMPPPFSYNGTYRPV
Summary of the method: as §1

[3] = target: T3, recombinant human MAO-B (monoamine oxidase-B) (Homo sapiens, UniProt P27338); experiment: Activity evaluation on recombinant human MAO-B (Amplex Red/HRP-coupled assay, 1 mM benzylamine substrate); conditions: 1 mM benzylamine, read-out: Inhibitory Activity (IC50, nM) MAO-B
T3 construct: purchased Sigma-Aldrich
T3 sequence (P27338 1-520): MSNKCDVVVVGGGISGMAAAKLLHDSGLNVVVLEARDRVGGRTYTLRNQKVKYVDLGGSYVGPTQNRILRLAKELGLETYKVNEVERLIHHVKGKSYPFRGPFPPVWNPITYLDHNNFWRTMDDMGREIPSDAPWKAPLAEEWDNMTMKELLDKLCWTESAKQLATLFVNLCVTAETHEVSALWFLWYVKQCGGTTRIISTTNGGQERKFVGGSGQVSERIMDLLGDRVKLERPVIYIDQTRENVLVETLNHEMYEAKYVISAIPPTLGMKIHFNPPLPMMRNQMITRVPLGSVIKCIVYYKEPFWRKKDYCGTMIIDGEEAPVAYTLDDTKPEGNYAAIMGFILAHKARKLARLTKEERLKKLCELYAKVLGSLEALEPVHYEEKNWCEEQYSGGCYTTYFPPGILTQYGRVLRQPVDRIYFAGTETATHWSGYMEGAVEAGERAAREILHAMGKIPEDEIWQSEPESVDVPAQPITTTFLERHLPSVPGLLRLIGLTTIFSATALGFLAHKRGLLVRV
Summary of the method: as §1

recombinant human VAP-1 = target: T4, recombinant human VAP-1 (Homo sapiens, UniProt Q16853); experiment: Activity evaluation on recombinant human VAP-1 (Amplex Red/HRP-coupled hydrogen peroxide assay, benzylamine substrate); conditions: recombinant human VAP-1; 30 min preincubation at 37° C.; 1 mM benzylamine; read-out: Inhibitory Activity (IC50, nM) human VAP-1
T4 construct: purchased R&D systems
T4 sequence (Q16853 1-763): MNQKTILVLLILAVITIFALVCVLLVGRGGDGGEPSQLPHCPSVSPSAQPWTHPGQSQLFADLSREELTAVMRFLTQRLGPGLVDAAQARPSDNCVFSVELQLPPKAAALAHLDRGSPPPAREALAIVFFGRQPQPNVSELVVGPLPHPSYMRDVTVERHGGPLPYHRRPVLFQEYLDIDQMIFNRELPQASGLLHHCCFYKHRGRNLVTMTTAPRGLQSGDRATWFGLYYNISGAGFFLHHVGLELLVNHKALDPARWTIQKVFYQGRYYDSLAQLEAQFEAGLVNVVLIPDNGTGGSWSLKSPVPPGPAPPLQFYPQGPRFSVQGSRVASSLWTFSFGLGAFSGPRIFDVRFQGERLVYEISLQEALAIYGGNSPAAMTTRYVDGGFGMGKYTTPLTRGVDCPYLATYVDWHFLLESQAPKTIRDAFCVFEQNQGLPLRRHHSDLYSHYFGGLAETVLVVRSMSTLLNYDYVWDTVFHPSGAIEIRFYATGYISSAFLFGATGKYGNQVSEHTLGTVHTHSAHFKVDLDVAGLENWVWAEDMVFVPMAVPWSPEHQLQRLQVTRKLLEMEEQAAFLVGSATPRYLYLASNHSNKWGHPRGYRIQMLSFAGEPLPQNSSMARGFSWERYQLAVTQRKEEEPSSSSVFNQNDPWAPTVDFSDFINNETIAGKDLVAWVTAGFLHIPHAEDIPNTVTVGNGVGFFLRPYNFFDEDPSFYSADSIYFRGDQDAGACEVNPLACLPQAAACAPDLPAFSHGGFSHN
Summary of the method: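 Hydrogen peroxide from benzylamine (1 mM) oxidation by human recombinant VAP-1 detected via HRP-coupled Amplex Red (200 uM) fluorescence, kinetic over 1–2 h. Enzyme and compound preincubated 30 min at 37 °C, pH 7.4 phosphate; 8-point dose response, signal-rate decrease versus DMSO control fitted to four-parameter logistic for IC50.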

| IC50 [1] [nM] | IC50 [2] [nM] | IC50 [3] [nM] | IC50 (recombinant human VAP-1) [nM] | SMILES |
| --- | --- | --- | --- | --- |
| > 100000 | 200 | 410 | 0.2 | CCn1cc(-c2ccc(-n3cnn(CC(CN)=C(F)F)c3=O)cn2)cn1 [Example 45, 2-[2-(aminomethyl)-3,3-difluoro-allyl]-4-[6-(1-ethylpyrazol-4-yl)-3-pyridyl]-1,2,4-triazol-3-one Trifluoroacetate] |
| > 100000 | 190 | > 100000 | 0.9 | CS(=O)(=O)c1ccc(-c2cccc(-n3cnn(CC(CN)=C(F)F)c3=O)n2)cc1 [Example 46, 2-[2-(aminomethyl)-3,3-difluoro-allyl]-4-[6-(4-methylsulfonylphenyl)-2-pyridyl]-1,2,4-triazol-3-one Trifluoroacetate] |
| > 100000 | 61 | 31000 | 1 | NCC(Cn1ncn(-c2cccc(-c3ccc(C(F)(F)F)nc3)n2)c1=O)=C(F)F [Example 48, 2-[2-(aminomethyl)-3,3-difluoro-allyl]-4-[6-[6-(trifluoromethyl)-3-pyridyl]-2-pyridyl]-1,2,4-triazol-3-one Trifluoroacetate] |
| > 100000 | 490 | > 100000 | 1.6 | CN(C)c1ccc(-c2cccc(-n3cnn(CC(CN)=C(F)F)c3=O)n2)cn1 [Example 49, 2-[2-(aminomethyl)-3,3-difluoro-allyl]-4-[6-[6-(dimethylamino)-3-pyridyl]-2-pyridyl]-1,2,4-triazol-3-one Trifluoroacetate] |
| > 100000 | 1710 | > 100000 | 1.3 | CCn1cc(-c2cccc(-n3cnn(CC(CN)=C(F)F)c3=O)n2)cn1 [Example 53, 2-[2-(aminomethyl)-3,3-difluoro-allyl]-4-[6-(1-ethylpyrazol-4-yl)-2-pyridyl]-1,2,4-triazol-3-one Trifluoroacetate] |
| > 100000 | 1700 | > 100000 | 2.2 | NCC(Cn1ncn(-c2cc(-c3ccc4c(c3)OCO4)ccn2)c1=O)=C(F)F [Example 58, 2-[2-(aminomethyl)-3,3-difluoro-allyl]-4-[4-(1,3-benzodioxol-5-yl)-2-pyridyl]-1,2,4-triazol-3-one Trifluoroacetate] |

The remaining lines, values behind:

| SMILES | IC50 [1] [nM] | IC50 [2] [nM] | IC50 [3] [nM] | IC50 (recombinant human VAP-1) [nM] |
| --- | --- | --- | --- | --- |
| NCC(Cn1ncn(-c2cccc(-c3ccc(N4CCNCC4)cc3)n2)c1=O)=C(F)F [Example 47, 2-[2-(aminomethyl)-3,3-difluoro-allyl]-4-[6-(4-piperazin-1-ylphenyl)-2-pyridyl]-1,2,4-triazol-3-one Ditrifluoroacetate] | > 100000 | 1900 | > 100000 | 3.5 |
| NCC(Cn1ncn(-c2cccc(-c3ccc4c(c3)OCO4)n2)c1=O)=C(F)F [Example 50, 2-[2-(aminomethyl)-3,3-difluoro-allyl]-4-[6-(1,3-benzodioxol-5-yl)-2-pyridyl]-1,2,4-triazol-3-one Trifluoroacetate] | > 100000 | 1200 | 13000 | 1.5 |
| Cc1cc(-c2cccc(-n3cnn(CC(CN)=C(F)F)c3=O)n2)cc2c1NC(=O)CC2 [Example 51, 6-[6-[1-[2-(aminomethyl)-3,3-difluoro-allyl]-5-oxo-1,2,4-triazol-4-yl]-2-pyridyl]-8-methyl-3,4-dihydro-1H-quinolin-2-one Trifluoroacetate] | > 100000 | 520 | 28000 | 0.6 |
| CN1C(=O)CCc2cc(-c3cccc(-n4cnn(CC(CN)=C(F)F)c4=O)n3)ccc21 [Example 52, 6-[6-[1-[2-(aminomethyl)-3,3-difluoro-allyl]-5-oxo-1,2,4-triazol-4-yl]-2-pyridyl]-1-methyl-3,4-dihydroquinolin-2-one Trifluoroacetate] | > 100000 | 300 | 23000 | 0.9 |
| CS(=O)(=O)c1ccc(-c2ccnc(-n3cnn(CC(CN)=C(F)F)c3=O)c2)cc1 [Example 54, 2-[2-(aminomethyl)-3,3-difluoro-allyl]-4-[4-(4-methylsulfonylphenyl)-2-pyridyl]-1,2,4-triazol-3-one Trifluoroacetate] | > 100000 | 480 | > 100000 | 4.9 |
| NCC(Cn1ncn(-c2cc(-c3ccc(N4CCNCC4)cc3)ccn2)c1=O)=C(F)F [Example 55, 2-[2-(aminomethyl)-3,3-difluoro-allyl]-4-[4-(4-piperazin-1-ylphenyl)-2-pyridyl]-1,2,4-triazol-3-one Ditrifluoroacetate] | > 100000 | 620 | > 100000 | 6.6 |
| NCC(Cn1ncn(-c2cc(-c3ccc(C(F)(F)F)nc3)ccn2)c1=O)=C(F)F [Example 56, 2-[2-(aminomethyl)-3,3-difluoro-allyl]-4-[4-[6-(trifluoromethyl)-3-pyridyl]-2-pyridyl]-1,2,4-triazol-3-one Trifluoroacetate] | > 100000 | 75 | 79600 | 1.6 |
| CN(C)c1ccc(-c2ccnc(-n3cnn(CC(CN)=C(F)F)c3=O)c2)cn1 [Example 57, 2-[2-(aminomethyl)-3,3-difluoro-allyl]-4-[4-[6-(dimethylamino)-3-pyridyl]-2-pyridyl]-1,2,4-triazol-3-one Trifluoroacetate] | > 100000 | 30 | 56400 | 0.9 |
